Reference: patent publication US20240342318A1, “CONJUGATES COMPRISING COVALENT BINDERS FOR TARGETING INTRACELLULAR PROTEINS” (RayzeBio, Inc., priority 2021, published 2024)
pKd: −log10 of the molar value. Read-outs that look alike come from different tables or passages of the source.

How the values were obtained:
EGFR (WT) = target: T1, EGFR (WT) (Homo sapiens, UniProt P00533); assay: In vitro kinase binding assay (phage/DNA-tagged kinase, affinity beads, qPCR), wild-type EGFR
T1 construct: The EGFR constructs span amino acids R669 to V1011 of the EGFR protein; T7 phage display fusion (kinase-tagged T7 phage) or DNA tag for qPCR; made in house; host or cells: E. coli (BL21-derived) infected with T7 phage for most assays; remaining kinases in HEK-293
T1 sequence (P00533 669-1011): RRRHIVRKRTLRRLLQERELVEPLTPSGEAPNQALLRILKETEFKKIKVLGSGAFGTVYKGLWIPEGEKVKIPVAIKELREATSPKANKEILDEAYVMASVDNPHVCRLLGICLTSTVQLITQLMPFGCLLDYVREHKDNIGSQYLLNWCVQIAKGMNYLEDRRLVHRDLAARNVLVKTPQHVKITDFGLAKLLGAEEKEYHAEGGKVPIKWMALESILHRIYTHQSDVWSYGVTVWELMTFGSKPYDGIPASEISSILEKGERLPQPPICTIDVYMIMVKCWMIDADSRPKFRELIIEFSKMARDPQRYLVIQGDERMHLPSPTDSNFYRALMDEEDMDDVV
Method: (§1) For most assays, kinase-tagged T7 phage strains were prepared in an E. coli host derived from the BL21 strain. For the EGFR assays, wild-type EGFR, or mutant EGFR (T790M, L858R) were utilized. The EGFR constructs span amino acids R669 to V1011 of the EGFR protein. E. coli were grown to log-phase and infected with T7 phage and incubated with shaking at 32° C. until lysis. The lysates were centrifuged and filtered to remove cell debris. The remaining kinases were produced in HEK-293 cells and subsequently tagged with DNA for qPCR detection. Streptavidin-coated magnetic beads were treated with biotinylated small molecule ligands for 30 minutes at room temperature to generate affinity resins for kinase assays. The liganded beads were blocked with excess biotin and washed with blocking buffer (SeaBlock (Pierce), 1% BSA, 0.05% Tween 20, 1 mM DTT) to remove unbound ligand and to reduce non-specific binding. Binding reactions were assembled by combining kinases, liganded affinity beads, and test compounds in 1× binding buffer (20% SeaBlock, 0.17×PBS, 0.05% Tween 20, 6 mM DTT). Test compounds were prepared as 111× stocks in 100% DMSO. Kds were determined using an 11-point 3-fold compound dilution series with three DMSO control points. All compounds for Kd measurements are distributed by acoustic transfer (non-contact dispensing) in 100% DMSO. The compounds were then diluted directly into the assays such that the final concentration of DMSO was 0.9%. All reactions performed in polypropylene 384-well plate. Each was a final volume of 0.02 ml. The assay plates were incubated at room temperature with shaking for 1 hour and the affinity beads were washed with wash buffer (lx PBS, 0.05% Tween 20). The beads were then re-suspended in elution buffer (lx PBS, 0.05% Tween 20, 0.5 μM nonbiotinylated affinity ligand) and incubated at room temperature with shaking for 30 minutes. The kinase concentration in the eluates was measured by qPCR.

EGFR (L858R, T790M) = target: T2, EGFR (L858R, T790M) (Homo sapiens, UniProt P00533, L858R/T790M); assay: In vitro kinase binding assay (phage/DNA-tagged kinase, affinity beads, qPCR), mutant EGFR; conditions: for Binding Affinity ratio of WT/DM: ratio of Kd EGFR (WT) to Kd EGFR (L858R, T790M)
T2 construct: The EGFR constructs span amino acids R669 to V1011 of the EGFR protein; T7 phage display fusion (kinase-tagged T7 phage) or DNA tag for qPCR; made in house; host or cells: E. coli (BL21-derived) infected with T7 phage for most assays; remaining kinases in HEK-293
T2 sequence (P00533 669-1011 T790M/L858R): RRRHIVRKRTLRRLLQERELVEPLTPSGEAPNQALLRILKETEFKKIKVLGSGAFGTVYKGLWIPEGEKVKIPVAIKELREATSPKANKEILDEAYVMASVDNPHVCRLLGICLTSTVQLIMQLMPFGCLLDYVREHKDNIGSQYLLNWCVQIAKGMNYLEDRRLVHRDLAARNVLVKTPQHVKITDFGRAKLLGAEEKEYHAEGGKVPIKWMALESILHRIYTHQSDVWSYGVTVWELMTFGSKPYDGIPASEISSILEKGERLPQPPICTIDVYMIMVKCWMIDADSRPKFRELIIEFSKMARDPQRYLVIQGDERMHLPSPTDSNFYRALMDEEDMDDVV
Method: as §1

[1] = wild-type EGFR construct R669 to V1011, 11-point 3-fold dilution series, 1 hour at room temperature, read-out: EGFR (WT) Kd
[2] = mutant EGFR (T790M, L858R) construct R669 to V1011, 11-point 3-fold dilution series, 1 hour at room temperature, read-out: EGFR (L858R, T790M) Kd

Row | SMILES | pKd (EGFR (WT); [1]) | pKd (EGFR (L858R, T790M); [2]) | Binding Affinity ratio of WT/DM (EGFR (L858R, T790M)) | pKd (EGFR (WT)) | pKd (EGFR (L858R, T790M))
1 | C=CC(=O)N[C@@H]1CN(c2nc(Nc3cn(CCCNC(=O)CN4CCN5CCN6CCN(CC4)CC(=O)[O][Lu]([O]C(=O)C5)[O]C(=O)C6)nc3OC)c3ncn(C)c3n2)C[C@H]1F [Compound 001-Lu, N-[(3R,4R)-4-fluoro-1-[6-[[3-methoxy-1-[3-[[2-(3,16,19-trioxo-2,17,18-trioxa-5,8,11,14-tetraza-1λ3-lutetatricyclo[9.6.3.25,14]docosan-8-yl)acetyl]amino]propyl]pyrazol-4-yl]amino]-9-methyl-purin-2-yl]pyrrolidin-3-yl]prop-2-enamide] | – | – | A (4 < A ≤ 25) | 7.00 to 8.70 | > 9.00
2 | C=CC(=O)N[C@@H]1CN(c2nc(Nc3cn(CCCCCNC(=O)CN4CCN(CC(=O)O)CCN(CC(=O)O)CCN(CC(=O)O)CC4)nc3OC)c3ncn(C)c3n2)C[C@H]1F [Compound 002, 2-[4,7-bis(carboxymethyl)-10-[2-[5-[4-[[2-[(3R,4R)-3-fluoro-4-(prop-2-enoylamino)pyrrolidin-1-yl]-9-methyl-purin-6-yl]amino]-3-methoxy-pyrazol-1-yl]pentylamino]-2-oxo-ethyl]-1,4,7,10-tetrazacyclododec-1-yl]acetic acid] | 7.00 to 8.70 | > 9.00 | – | – | –
3 | C=CC(=O)N[C@@H]1CN(c2nc(Nc3cn(CCCCCNC(=O)CN4CCN5CCN6CCN(CC4)CC(=O)[O][Lu]([O]C(=O)C5)[O]C(=O)C6)nc3OC)c3ncn(C)c3n2)C[C@H]1F [Compound 002-Lu, N-[(3R,4R)-4-fluoro-1-[6-[[3-methoxy-1-[5-[[2-(3,16,19-trioxo-2,17,18-trioxa-5,8,11,14-tetraza-1λ3-lutetatricyclo[9.6.3.25,14]docosan-8-yl)acetyl]amino]pentyl]pyrazol-4-yl]amino]-9-methyl-purin-2-yl]pyrrolidin-3-yl]prop-2-enamide] | – | – | A (4 < A ≤ 25) | 7.00 to 8.70 | > 9.00
4 | C=CC(=O)N[C@@H]1CN(c2nc(Nc3cn(CCCCCCCNC(=O)CN4CCN5CCN6CCN(CC4)CC(=O)[O][Lu]([O]C(=O)C5)[O]C(=O)C6)nc3OC)c3ncn(C)c3n2)C[C@H]1F [Compound 003-Lu, N-[(3R,4R)-4-fluoro-1-[6-[[3-methoxy-1-[7-[[2-(3,16,19-trioxo-2,17,18-trioxa-5,8,11,14-tetraza-1λ3-lutetatricyclo[9.6.3.25,14]docosan-8-yl)acetyl]amino]heptyl]pyrazol-4-yl]amino]-9-methyl-purin-2-yl]pyrrolidin-3-yl]prop-2-enamide] | – | – | A (4 < A ≤ 25) | 7.00 to 8.70 | > 9.00
5 | C=CC(=O)N[C@@H]1CN(c2nc(Nc3cn(CCCCCNC(=O)CN4CCN5CCN6CCN(CC4)CC(=O)[O][Lu]([O]C(=O)C5)[O]C(=O)C6)nc3OC)c3ncn(C(C)(C)C)c3n2)C[C@H]1F [Compound 004-Lu, N-[(3R,4R)-1-[9-tert-butyl-6-[[3-methoxy-1-[5-[[2-(3,16,19-trioxo-2,17,18-trioxa-5,8,11,14-tetraza-1λ3-lutetatricyclo[9.6.3.25,14]docosan-8-yl)acetyl]amino]pentyl]pyrazol-4yl]amino]purin-2-yl]-4-fluoro-pyrrolidin-3-yl]prop-2-enamide] | – | – | B (25 < B ≤ 100) | 7.00 to 8.70 | > 9.00
6 | C=CC(=O)N[C@@H]1CN(c2nc(Nc3cn(CCCCCNC(=O)CN4CCN5CCN6CCN(CC4)CC(=O)[O][Lu]([O]C(=O)C5)[O]C(=O)C6)nc3CC)c3ncn(C(C)(C)C)c3n2)C[C@H]1F [Compound 005-Lu, N-[(3R,4R)-1-[9-tert-butyl-6-[[3-ethyl-1-[5-[[2-(3,16,19-trioxo-2,17,18-trioxa-5,8,11,14-tetraza-1λ3-lutetatricyclo[9.6.3.25,14]docosan-8-yl)acetyl]amino]pentyl]pyrazol-4-yl]amino]purin-2-yl]-4-fluoro-pyrrolidin-3-yl]prop-2-enamide] | – | – | C (100 < C ≤ 1000) | 5.60 to 6.00 | 7.60 to 9.00

Now from value to molecule, other results behind:

Row | pKd (EGFR (WT); [1]) | pKd (EGFR (L858R, T790M); [2]) | Binding Affinity ratio of WT/DM (EGFR (L858R, T790M)) | SMILES | pKd (EGFR (WT)) | pKd (EGFR (L858R, T790M))
7 | 7.00 to 8.70 | > 9.00 | A (4 < A ≤ 25) | C=CC(=O)N[C@@H]1CN(c2nc(Nc3cn(CCCNC(=O)CN4CCN(CC(=O)O)CCN(CC(=O)O)CCN(CC(=O)O)CC4)nc3OC)c3ncn(C)c3n2)C[C@H]1F [Compound 001, 2-[4,7-bis(carboxymethyl)-10-[2-[3-[4-[[2-[(3R,4R)-3-fluoro-4-(prop-2-enoylamino)pyrrolidin-1-yl]-9-methyl-purin-6-yl]amino]-3-methoxy-pyrazol-1-yl]propylamino]-2-oxo-ethyl]-1,4,7,10-tetrazacyclododec-1-yl]acetic acid] | – | –
8 | 7.00 to 8.70 | > 9.00 | A (4 < A ≤ 25) | C=CC(=O)N[C@@H]1CN(c2nc(Nc3cn(CCCCCCCNC(=O)CN4CCN(CC(=O)O)CCN(CC(=O)O)CCN(CC(=O)O)CC4)nc3OC)c3ncn(C)c3n2)C[C@H]1F [Compound 003, 2-[4,7-bis(carboxymethyl)-10-[2-[7-[4-[[2-[(3R,4R)-3-fluoro-4-(prop-2-enoylamino)pyrrolidin-1-yl]-9-methyl-purin-6-yl]amino]-3-methoxy-pyrazol-1-yl]heptylamino]-2-oxo-ethyl]-1,4,7,10-tetrazacyclododec-1-yl]acetic acid] | – | –
9 | 6.00 to 7.00 | 7.60 to 9.00 | B (25 < B ≤ 100) | C=CC(=O)N[C@@H]1CN(c2nc(Nc3cn(CCCCCNC(=O)CN4CCN(CC(=O)O)CCN(CC(=O)O)CCN(CC(=O)O)CC4)nc3OC)c3ncn(C(C)(C)C)c3n2)C[C@H]1F [Compound 004, 2-[4-[2-[5-[4-[[9-tert-butyl-2-[(3R,4R)-3-fluoro-4-(prop-2-enoylamino)pyrrolidin-1-yl]purin-6-yl]amino]-3-methoxy-pyrazol-1-yl]pentylamino]-2-oxo-ethyl]-7,10-bis(carboxymethyl)-1,4,7,10-tetrazacyclododec-1-yl]acetic acid] | – | –
10 | 5.60 to 6.00 | 7.60 to 9.00 | C (100 < C ≤ 1000) | C=CC(=O)N[C@@H]1CN(c2nc(Nc3cn(CCCCCNC(=O)CN4CCN(CC(=O)O)CCN(CC(=O)O)CCN(CC(=O)O)CC4)nc3CC)c3ncn(C(C)(C)C)c3n2)C[C@H]1F [Compound 005, 2-[4-[2-[5-[4-[[9-tert-butyl-2-[(3R,4R)-3-fluoro-4-(prop-2-enoylamino)pyrrolidin-1-yl]purin-6-yl]amino]-3-ethyl-pyrazol-1-yl]pentylamino]-2-oxo-ethyl]-7,10-bis(carboxymethyl)-1,4,7,10-tetrazacyclododec-1-yl]acetic acid] | – | –
11 | 5.60 to 6.00 | 7.60 to 9.00 | B (25 < B ≤ 100) | C=CC(=O)N[C@@H]1CN(c2nc(Nc3cn(CCCCCNC(=O)CN4C[C@H](CC)N(CC(=O)O)C[C@H](CC)N(CC(=O)O)C[C@H](CC)N(CC(=O)O)C[C@@H]4CC)nc3CC)c3ncn(C(C)(C)C)c3n2)C[C@H]1F [Compound 006, 2,2′,2″-((2S,5S,8S,11S)-10-(2-((5-(4-((2-((3R,4R)-3-acrylamido-4-fluoropyrrolidin-1-yl)-9-(tert-butyl)-9H-purin-6-yl)amino)-3-ethyl-1H-pyrazol-1-yl)pentyl)amino)-2-oxoethyl)-2,5,8,11-tetraethyl-1,4,7,10-tetraazacyclododecane-1,4,7-triyl)triacetic acid] | – | –
12 | 6.00 to 7.00 | 7.60 to 9.00 | C (100 < C ≤ 1000) | C=CC(=O)N1C[C@H](COc2nc(Nc3cnn(CCCCCNC(=O)CN4CCN(CC(=O)O)CCN(CC(=O)O)CCN(CC(=O)O)CC4)c3)nc3[nH]cc(Cl)c23)[C@@H](OC)C1 [Compound 007, 2,2′,2″-(10-(2-((5-(4-((4-(((3R,4R)-1-acryloyl-4-methoxypyrrolidin-3yl)methoxy)-5-chloro-7H-pyrrolo[2,3-d]pyrimidin-2-yl)amino)-1H-pyrazol-1-yl)pentyl)amino)-2-oxoethyl)-1,4,7,10-tetraazacyclododecane-1,4,7-triyl)triacetic acid] | – | –
